Laboratory results published in patent US6417164B1, “Treatment of type II diabetes mellitus with amylin agonists” (Amylin Pharmaceuticals, Inc., priority 1995, dated 2002).
Ends that are not written are not given here.

Tests used:
[1] = test system: treated test animals; experiment: Amylin activity in vivo in treated test animals
From the text: (§1) These preferred compounds include ^25Pro^26Val^28,29Pro-h-amylin, ^25,28,29Pro-h-amylin (also referred to herein as “AC-0137”), and ^18Arg^25,28Pro-h-amylin.

[2] = test system: insulin-stimulated glycogen synthesis in soleus muscle; experiment: Soleus muscle assay; design: species or system rat
Experimental: Assays of biological activity of amylin agonists, including amylin agonist analogue preparations, in the soleus muscle are performed using previously described methods (Leighton, B. and Cooper, G. J. S., Nature, 335:632-635 (1988); Cooper, G. J. S., et al. Proc. Natl. Acad. Sci. USA 85:7763-7766 (1988)). In summary, amylin agonist activity is assessed by measuring the inhibition of insulin-stimulated glycogen synthesis in soleus muscle. Amylin antagonist activity is assessed by measuring the resumption of insulin-stimulated glycogen synthesis in the presence of 100 nM rat amylin and an amylin antagonist. Concentrations of peptide dissolved in carrier-free buffers are determined by quantitative amino acid analysis, as described therein. The ability of compounds to act as agonists in this assay is determined by measuring EC50 values. Standard errors are determined by fitting of sigmoidal dose response curves using a four parameter logistic equation (De Lean, A., Munson, P. J., Guardabasso, V. and Rodbard, D. (1988) ALLFIT, Version 2.7, National Institute of Child Health and Human Development, N.I.H. Bethesda, Md., 1 diskette). A number of amylin agonists have been characterized using these biological assays.

[3] = target: T1, membrane-bound amylin receptors (Rattus norvegicus, UniProt P32214+Q9JJ74); experiment: Receptor binding assay (competition with 125I Bolton Hunter rat amylin)
T1 construct: A preferred source of the membrane preparations used in the assay is the basal forebrain which comprises membranes from the nucleus accumbens; from tissue; host or cells: basal forebrain membranes (nucleus accumbens and surrounding regions)
T1 sequence (P32214 25-516): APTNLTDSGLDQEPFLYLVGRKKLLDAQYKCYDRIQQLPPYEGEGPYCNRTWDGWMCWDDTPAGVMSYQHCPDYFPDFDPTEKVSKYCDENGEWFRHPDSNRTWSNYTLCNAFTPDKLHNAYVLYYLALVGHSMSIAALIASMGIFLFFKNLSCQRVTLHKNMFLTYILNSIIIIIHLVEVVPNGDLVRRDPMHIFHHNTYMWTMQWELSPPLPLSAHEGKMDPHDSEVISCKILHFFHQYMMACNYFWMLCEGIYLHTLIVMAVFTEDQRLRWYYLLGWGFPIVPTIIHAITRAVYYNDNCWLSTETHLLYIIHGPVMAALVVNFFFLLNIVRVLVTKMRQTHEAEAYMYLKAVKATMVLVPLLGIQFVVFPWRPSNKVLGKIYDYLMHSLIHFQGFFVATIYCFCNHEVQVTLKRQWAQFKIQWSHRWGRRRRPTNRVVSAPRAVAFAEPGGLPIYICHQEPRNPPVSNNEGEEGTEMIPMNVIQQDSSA
T1 sequence (Q9JJ74 27-148): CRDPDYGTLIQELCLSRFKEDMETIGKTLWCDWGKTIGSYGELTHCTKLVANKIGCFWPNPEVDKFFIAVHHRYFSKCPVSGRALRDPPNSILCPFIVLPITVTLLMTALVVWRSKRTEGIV
From the text: The receptor binding assay is described in U.S. Pat. No. 5,264,372, issued Nov. 23, 1993, the disclosure of which is incorporated herein by reference. The receptor binding assay is a competition assay which measures the ability of compounds to bind specifically to membrane-bound amylin receptors. A preferred source of the membrane preparations used in the assay is the basal forebrain which comprises membranes from the nucleus accumbens and surrounding regions. Compounds being assayed compete for binding to these receptor preparations with ^125I Bolton Hunter rat amylin. Competition curves, wherein the amount bound (B) is plotted as a function of the log of the concentration of ligand are analyzed by computer, using analyses by nonlinear regression to a 4-parameter logistic equation (Inplot program; GraphPAD Software, San Diego, Calif.) or the ALLFIT program of DeLean et. al. (ALLFIT, Version 2.7 (NIH, Bethesda, Md. 20892)). Munson, P. and Rodbard, D., Anal. Biochem. 107:220-239 (1980).

[4] = Solubility and stability characteristics compared to human amylin; assay type: physicochemical
From the text: as §1

competition with amylin in the receptor binding assay [3] | stability characteristics [4] | Compound | amylin activity in vivo [1] | amylin agonist action in the soleus muscle assay [2] | antagonist activity as measured by the soleus muscle assay [2]
found to compete with amylin | – | des-^1Lys^18Arg^25,28Pro-h-amylin | marked hyperlactemia followed by hyperglycemia | shown to act as amylin agonists | negligible antagonist activity
– | more desirable | CC[C@H](C)[C@H](NC(=O)[C@@H]1CCCN1C(=O)CNC(=O)[C@H](Cc1ccccc1)NC(=O)[C@H](CC(N)=O)NC(=O)[C@H](CC(N)=O)NC(=O)[C@H](CO)NC(=O)[C@H](CO)NC(=O)[C@H](Cc1c[nH]cn1)NC(=O)[C@@H](NC(=O)[C@H](CC(C)C)NC(=O)[C@H](Cc1ccccc1)NC(=O)[C@H](CC(N)=O)NC(=O)[C@H](C)NC(=O)[C@H](CC(C)C)NC(=O)[C@H](CCCNC(=N)N)NC(=O)[C@H](CCC(N)=O)NC(=O)[C@@H](NC(=O)[C@H](C)NC(=O)[C@@H]1CSSC[C@H](NC(=O)[C@@H](N)CCCCN)C(=O)N[C@@H](CC(N)=O)C(=O)N[C@@H]([C@@H](C)O)C(=O)N[C@@H](C)C(=O)N[C@@H]([C@@H](C)O)C(=O)N1)[C@@H](C)O)C(C)C)C(=O)N[C@@H](CC(C)C)C(=O)N1CCC[C@H]1C(=O)N1CCC[C@H]1C(=O)N[C@H](C(=O)N[C@@H](CC(N)=O)C(=O)N[C@H](C(=O)NCC(=O)N[C@@H](CO)C(=O)N[C@@H](CC(N)=O)C(=O)N[C@H](C(=O)N[C@@H](Cc1ccc(O)cc1)C(N)=O)[C@@H](C)O)C(C)C)[C@@H](C)O [AC137, ^25,28,29Pro-h-amylin] | – | – | –
found to compete with amylin | – | ^18Arg^25,28,29Pro-h-amylin | – | shown to act as amylin agonists | negligible antagonist activity
– | – | des-^1Lys-h-amylin [des-^1Lys-hamylin] | marked hyperlactemia followed by hyperglycemia | – | –
found to compete with amylin | – | des-^1Lys^18Arg^25,28,29Pro-h-amylin | – | shown to act as amylin agonists | negligible antagonist activity
– | – | ^28Pro-h-amylin (KCNTATCATQRLANFLVHSSNNFGAILPSTNVGSNTY; ends and bridges not checked; cysteine pairing not given here; UniProt P10997 34-70, looked up, variant S28P) [amylin agonist analogue of human amylin] | marked hyperlactemia followed by hyperglycemia | – | –
found to compete with amylin | – | des-^1Lys^25,28,29Pro-h-amylin | – | shown to act as amylin agonists | negligible antagonist activity

Compound | competition with amylin in the receptor binding assay [3] | stability characteristics [4] | amylin activity in vivo [1] | amylin agonist action in the soleus muscle assay [2] | antagonist activity as measured by the soleus muscle assay [2]
^25Pro^26Val^25,28Pro-h-amylin | found to compete with amylin | – | – | shown to act as amylin agonists | negligible antagonist activity
